Test system: TGF-β activation
Assay: Inventors' additional tests of TGF-β activation with synthetic KRFK and LSKL peptides
Text: Moreover, the group of Murphy-Ullrich at the University of Alabama, U.S.A. investigated the adherent-type TGF-β activation reaction by a glycoprotein, thrombospondin 1, and reported that TGF-β is activated by binding of KRFK sequence corresponding to amino acid numbers 412-415 of thrombospondin 1 to LSKL sequence corresponding to amino acid numbers 54-57 of LAP, and that the synthetic KRFK peptide activates TGF-β, whereas the synthetic LSKL peptide inhibits the TGF-β activation reaction (Schultz-Cherry et al., J. Biol. Chem. 270: 7304-7310, 1995; Crawford et al., Cell 93: 1159-1170, 1998; Ribeiro et al., J. Biol. Chem. 274: 13586-13593, 1999; Murphy-Ullrich and Poczatek Cytokine & Growth Factor Reviews 11: 59-69, 2000). The LSKL sequence derived from amino acid numbers 54-57 of the aforementioned LAP overlaps with the plasmin cleavage site K56-L57 identified by the present inventors. By binding to and cutting this portion, respectively, thrombospondin 1 and proteases may inhibit a noncovalent bond between this portion and active TGF-β molecule, resulting in release of the active TGF-β molecule from a latent complex (namely the TGF-β activation reaction). […] Murphy-Ullrich et al. indicated an involvement of a thrombospondin 1-dependent adherent-type TGF-β activation reaction in the pathogenesis of lung or pancreatic diseases, but not in the pathogenesis of liver diseases.

LSKL [LSKL peptide]
inhibition of TGF-β activation: could not reproduce

Reference: patent US7732401B2, “Inhibitor of TGF-β activation reaction” (Riken, priority 2007, dated 2010)
